US20030153622A1, “Ophthalmic solution and contact lens solution” (MENICON CO., LTD., priority 2001, published 2003)

Assay: Characteristics of Component B (isoelectric point; pH and osmotic pressure in 0.1 mol/L aqueous solution)
Format: physicochemical
Conditions: for Isoelectric point: Component B; for Osmotic pressure / pH: Component B in 0.1 mol/L aqueous solution
Description: As the Component A, polyhexamethylene biguamide (PHMB) was used. As the Component B (tonicity adjusting agent), different kinds of the amino-acid-based components having different isoelectric points as indicated in the following TABLE 2 were used. […] As the chelating agent, disodium salt of ethylenediamine tetraacetic acid (EDTA·2Na) was used.

| Structure (SMILES) | Isoelectric point | Osmotic pressure | pH |
| --- | --- | --- | --- |
| NCCS(=O)(=O)O [taurine] | 4.50 | 106 mOsm/kg | 5.19 |
| N[C@@H](CO)C(=O)O [L-serine] | 5.68 | 105 mOsm/kg | 6.12 |
| O=C(O)[C@@H]1CCCN1 [L-proline] | 6.30 | 104 mOsm/kg | 5.90 |
| CC(C)[C@H](N)C(=O)O [L-valine] | 5.96 | 103 mOsm/kg | 7.83 |
| CC(N)C(=O)O (racemic) [DL-alanine] | 6.00 | 104 mOsm/kg | 6.05 |
| NCCCC(=O)O [γ-aminobutyric acid] | 7.30 | 107 mOsm/kg | 5.96 |
| Cl.N[C@@H](Cc1c[nH]cn1)C(=O)O [L-histidine hydrochloride] | 7.59 | 105 mOsm/kg | 5.80 |
| Cl.NCCCC[C@H](N)C(=O)O [lysine hydrochloride] | 9.74 | 105 mOsm/kg | 5.91 |
| Cl.N=C(N)NCCC[C@H](N)C(=O)O [arginine hydrochloride] | 10.76 | 181 mOsm/kg | 5.62 |
| C[C@@H](O)[C@H](N)C(=O)O [L-threonine] | 6.16 | 102 mOsm/kg | 5.88 |
| N=C(N)NCCC[C@H](N)C(=O)O [arginine] | 10.76 | 100 mOsm/kg | 11.20 |
| NCCCCCC(=O)O [ε-aminocaproic acid] | 7.60 | 106 mOsm/kg | 7.54 |
| N[C@@H](Cc1ccccc1)C(=O)O [L-phenylalanine] | 5.48 | 105 mOsm/kg | 6.14 |
| N[C@@H](CS)C(=O)O [L-cysteine] | 5.07 | 102 mOsm/kg | 5.86 |
| O=C(O)[C@@H]1C[C@@H](O)CN1 [L-oxyproline] | 5.83 | 105 mOsm/kg | 5.87 |
